In ChEMBL document CHEMBL5579814, “Analogues of the pan-selectin antagonist rivipansel (GMI-1070)” (Eur J Med Chem, 2024):

Legend:
[1] = Inhibition of horseradish peroxidase coupled sialyl Lewisa-polyacrylamide polymer binding to human P-selectin/IgG chimera measured after 2 hrs in presence of TMB by colorimetric assay
[2] = target: T1, E-selectin (Homo sapiens, UniProt P16581); assay: Binding affinity to sialyl LewisX mimetic 21a pretreated Blue-NHS-labelled E-selectin Lec-EGF/SCR1/SCR2 domain (unknown origin) measured after 20 mins by microscale thermophoresis
T1 sequence (P16581 whole entry): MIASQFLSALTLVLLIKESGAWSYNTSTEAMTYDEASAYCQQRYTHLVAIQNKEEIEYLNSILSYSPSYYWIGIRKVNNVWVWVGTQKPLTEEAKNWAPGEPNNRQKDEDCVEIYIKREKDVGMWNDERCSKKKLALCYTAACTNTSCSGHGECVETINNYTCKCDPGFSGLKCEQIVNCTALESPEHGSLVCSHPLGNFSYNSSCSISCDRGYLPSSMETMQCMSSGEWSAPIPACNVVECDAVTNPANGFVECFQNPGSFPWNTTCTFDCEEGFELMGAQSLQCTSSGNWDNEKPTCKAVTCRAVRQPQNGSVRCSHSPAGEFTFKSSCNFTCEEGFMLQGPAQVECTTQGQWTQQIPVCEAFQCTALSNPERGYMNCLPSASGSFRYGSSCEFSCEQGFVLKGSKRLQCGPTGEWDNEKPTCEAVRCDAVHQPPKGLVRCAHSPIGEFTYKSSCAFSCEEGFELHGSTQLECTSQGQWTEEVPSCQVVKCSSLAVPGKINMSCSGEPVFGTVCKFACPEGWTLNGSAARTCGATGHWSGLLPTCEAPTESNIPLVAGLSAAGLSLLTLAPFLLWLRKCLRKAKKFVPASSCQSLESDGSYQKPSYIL

[3] = target: T1, E-selectin; assay: Binding affinity to E-selectin SCR2 domain (unknown origin) by isothermal titration calorimetry

Row | SMILES | IC50 [1] [µM] | Kd [2] [µM] | Kd [3] [µM]
1 | CO[C@@H]1O[C@H](CO)[C@@H](O[C@@H]2O[C@H](CO)[C@H](O)[C@H](O[C@]3(C(=O)O)C[C@H](O)[C@@H](NC(C)=O)[C@H]([C@H](O)[C@H](O)CO)O3)[C@H]2O)[C@H](O[C@@H]2O[C@@H](C)[C@@H](O)[C@@H](O)[C@@H]2O)[C@H]1NC(C)=O | ≥ 7000 | 738 | –
2 | CC[C@H]1C(C(=O)NCCCc2cn(CCCC(=O)Nc3cc(S(=O)(=O)O)cc4cc(S(=O)(=O)O)cc(S(=O)(=O)O)c34)nn2)CC[C@@H](O[C@@H]2O[C@H](CO)[C@H](O)[C@H](O[C@@H](CC3CCCCC3)C(=O)O)[C@H]2OC(=O)c2ccccc2)[C@@H]1O[C@@H]1O[C@@H](C)[C@@H](O)[C@@H](O)[C@@H]1O (stereo partly drawn) | 82 | – | –
3 | C[C@@H]1O[C@@H](O[C@@H]2[C@@H](NC(=O)c3cc(=O)[nH]c(=O)[nH]3)C[C@@H](C(=O)NCCNC(=O)COCCOCC(=O)Nc3cc(S(=O)(=O)O)cc4cc(S(=O)(=O)O)cc(S(=O)(=O)O)c34)C[C@H]2O[C@@H]2O[C@H](CO)[C@H](O)[C@H](O[C@@H](CC3CCCCC3)C(=O)O)[C@H]2OC(=O)c2ccccc2)[C@@H](O)[C@H](O)[C@@H]1O [RIVIPANSEL] | 423 | – | –
4 | CC[C@H]1C(C(=O)NCCCc2cn(CCCCC(=O)Nc3cc(S(=O)(=O)O)cc4cc(S(=O)(=O)O)cc(S(=O)(=O)O)c34)nn2)CC[C@@H](O[C@@H]2O[C@H](CO)[C@H](O)[C@H](O[C@@H](CC3CCCCC3)C(=O)O)[C@H]2OC(=O)c2ccccc2)[C@@H]1O[C@@H]1O[C@@H](C)[C@@H](O)[C@@H](O)[C@@H]1O (stereo partly drawn) | 210 | – | –
5 | CC[C@@H]1[C@@H](O[C@@H]2O[C@@H](C)[C@@H](O)[C@@H](O)[C@@H]2O)[C@H](O[C@@H]2O[C@H](CO)[C@H](O)[C@H](O[C@@H](CC3CCCCC3)C(=O)O)[C@H]2OC(=O)c2ccccc2)CC[C@@H]1C(=O)NCCCc1cn(CCC(=O)Nc2cc(S(=O)(=O)O)cc3cc(S(=O)(=O)O)cc(S(=O)(=O)O)c23)nn1 | 94 | – | –
6 | COC(=O)[C@@H]1C[C@H](NC(=O)c2cc(=O)[nH]c(=O)[nH]2)[C@@H](O[C@@H]2O[C@@H](C)[C@@H](O)[C@@H](O)[C@@H]2O)[C@H](O[C@@H]2O[C@H](CO)[C@H](O)[C@H](O[C@@H](CC3CCCCC3)C(=O)O)[C@H]2OC(=O)c2ccccc2)C1 | 3390 | – | –
7 | C[C@@H]1O[C@@H](O[C@@H]2CCCC[C@H]2O[C@@H]2O[C@H](CO)[C@H](O)[C@H](O[C@@H](CC3CCCCC3)C(=O)O)[C@H]2O)[C@@H](O)[C@H](O)[C@@H]1O | – | – | 60.7
